Laboratory results as given in patent US11186564B2, “Dual NAV1.2/5HT2a inhibitors for treating CNS disorders” (Sunovion Pharmaceuticals Inc., priority 2016, dated 2021).

Tests used:
[1] = target: human sodium channel NaV1.2 (Homo sapiens, UniProt Q99250); experiment: NaV1.2 inhibition, automated patch-clamp (Q-Patch HTX), slow inactivated state (state C); format: cell-based; conditions: hNaV1.2 CHO cells, slow inactivated state; for IC50: read-out: NaV1.2 IC50; for inhibition at 10 µM: 10 μM compound, read-out: NaV1.2 (% inh), 10 μM; for inhibition at 1 µM: 1 μM compound, read-out: NaV1.2 (% inh), 1 μM
Procedure, shortened: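 CHO K-1 cells stably expressing human NaV1.2, whole-cell automated patch clamp, holding −100 mV; slow-inactivated state (state C) read at a 5 ms step to 0 mV after 10 s at −50 mV and 15 ms at −90 mV. Percent inhibition vs vehicle; IC50 by nonlinear least-squares fit.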

[2] = target: T1, recombinant human serotonin receptor 5-HT2A (Homo sapiens, UniProt P28223); experiment: 5-HT2A antagonist Ca2+ assay in CHO-K1 cells (method A aequorin luminescence / method B FLIPR fluorescence); format: cell-based; conditions: antagonist mode vs EC80 of reference agonist, method A or B, read-out: 5HT2A IC50
T1 construct: expressed in transfected cells; method B: loaded with Ca2+ dye
Procedure, shortened: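 Method A: CHO-K1 cells co-expressing human 5-HT2A and mitochondrial apoaequorin were given reference agonist at EC80 15 min after compound, with luminescence read. Method B: dye-loaded 5-HT2A CHO-K1 cells were pretreated with compound, then given serotonin at EC80, with FLIPR fluorescence read. IC50s came from nonlinear fits of percent inhibition.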

T1 sequence (P28223 whole entry): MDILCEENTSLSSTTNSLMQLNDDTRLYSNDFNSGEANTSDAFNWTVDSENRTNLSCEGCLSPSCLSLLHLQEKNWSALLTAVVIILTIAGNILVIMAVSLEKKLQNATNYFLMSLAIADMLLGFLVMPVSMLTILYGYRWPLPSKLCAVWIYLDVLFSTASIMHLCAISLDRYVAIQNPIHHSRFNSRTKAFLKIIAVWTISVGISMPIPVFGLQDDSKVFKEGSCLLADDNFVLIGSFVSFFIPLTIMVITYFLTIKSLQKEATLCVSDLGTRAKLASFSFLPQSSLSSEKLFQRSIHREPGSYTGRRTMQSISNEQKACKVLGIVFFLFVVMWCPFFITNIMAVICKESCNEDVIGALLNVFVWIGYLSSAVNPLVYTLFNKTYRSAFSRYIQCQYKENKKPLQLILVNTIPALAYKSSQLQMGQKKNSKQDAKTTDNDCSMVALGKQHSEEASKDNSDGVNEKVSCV
Sequence of human sodium channel NaV1.2 (Q99250 whole entry): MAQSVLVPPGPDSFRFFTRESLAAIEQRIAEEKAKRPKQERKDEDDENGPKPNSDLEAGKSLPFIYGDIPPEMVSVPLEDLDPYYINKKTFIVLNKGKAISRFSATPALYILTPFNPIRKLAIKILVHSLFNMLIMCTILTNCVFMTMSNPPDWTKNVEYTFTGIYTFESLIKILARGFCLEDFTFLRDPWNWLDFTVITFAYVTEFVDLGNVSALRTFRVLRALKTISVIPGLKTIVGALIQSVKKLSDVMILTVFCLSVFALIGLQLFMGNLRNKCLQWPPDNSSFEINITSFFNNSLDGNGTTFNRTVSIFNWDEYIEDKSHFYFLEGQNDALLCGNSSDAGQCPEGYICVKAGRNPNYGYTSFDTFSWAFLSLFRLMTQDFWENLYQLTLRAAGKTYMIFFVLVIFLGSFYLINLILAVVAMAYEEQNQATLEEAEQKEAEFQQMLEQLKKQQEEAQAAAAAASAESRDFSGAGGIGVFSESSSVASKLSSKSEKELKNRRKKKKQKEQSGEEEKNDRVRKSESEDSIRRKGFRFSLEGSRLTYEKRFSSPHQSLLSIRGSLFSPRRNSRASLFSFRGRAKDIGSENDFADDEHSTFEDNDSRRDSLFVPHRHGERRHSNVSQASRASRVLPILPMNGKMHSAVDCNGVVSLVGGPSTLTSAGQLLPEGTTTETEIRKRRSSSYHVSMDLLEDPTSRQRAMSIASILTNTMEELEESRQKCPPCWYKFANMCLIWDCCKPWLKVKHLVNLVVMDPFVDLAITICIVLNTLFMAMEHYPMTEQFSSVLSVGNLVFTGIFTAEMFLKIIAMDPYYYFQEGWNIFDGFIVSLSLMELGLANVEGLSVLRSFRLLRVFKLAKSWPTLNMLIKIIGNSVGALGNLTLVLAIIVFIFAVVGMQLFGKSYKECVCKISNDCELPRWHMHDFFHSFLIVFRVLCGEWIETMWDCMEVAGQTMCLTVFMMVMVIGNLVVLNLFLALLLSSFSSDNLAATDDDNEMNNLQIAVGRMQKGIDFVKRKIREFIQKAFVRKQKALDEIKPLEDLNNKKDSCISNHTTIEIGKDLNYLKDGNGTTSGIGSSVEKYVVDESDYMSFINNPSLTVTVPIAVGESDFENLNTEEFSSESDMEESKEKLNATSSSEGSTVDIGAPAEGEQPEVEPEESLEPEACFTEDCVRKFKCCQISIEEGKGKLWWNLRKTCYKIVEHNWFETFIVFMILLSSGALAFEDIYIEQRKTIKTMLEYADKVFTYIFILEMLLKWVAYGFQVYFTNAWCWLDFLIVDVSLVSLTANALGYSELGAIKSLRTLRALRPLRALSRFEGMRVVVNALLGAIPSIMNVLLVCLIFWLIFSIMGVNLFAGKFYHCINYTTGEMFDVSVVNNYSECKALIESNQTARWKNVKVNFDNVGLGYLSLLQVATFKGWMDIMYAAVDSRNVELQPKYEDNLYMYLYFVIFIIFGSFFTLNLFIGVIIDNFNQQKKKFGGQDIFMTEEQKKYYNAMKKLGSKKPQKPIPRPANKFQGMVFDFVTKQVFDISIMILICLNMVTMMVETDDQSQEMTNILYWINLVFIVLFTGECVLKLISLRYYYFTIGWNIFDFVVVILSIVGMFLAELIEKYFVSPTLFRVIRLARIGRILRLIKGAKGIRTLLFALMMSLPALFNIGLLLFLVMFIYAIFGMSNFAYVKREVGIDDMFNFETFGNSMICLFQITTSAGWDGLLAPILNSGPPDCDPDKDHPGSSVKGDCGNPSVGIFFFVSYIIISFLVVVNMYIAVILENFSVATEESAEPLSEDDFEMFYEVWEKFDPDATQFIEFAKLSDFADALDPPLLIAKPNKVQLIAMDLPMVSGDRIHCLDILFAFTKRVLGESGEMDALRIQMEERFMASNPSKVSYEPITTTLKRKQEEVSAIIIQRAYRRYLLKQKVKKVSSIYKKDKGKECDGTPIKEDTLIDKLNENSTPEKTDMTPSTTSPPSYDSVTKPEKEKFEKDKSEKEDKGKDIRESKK

SMILES	IC50 [1]	IC50 [2]	inhibition at 10 µM [1]	inhibition at 1 µM [1]
OC(COC1CCCCC1)CN1C[C@@H]2CC[C@H]1CN2c1ccccc1 (stereo partly drawn) [Example 317, 1-(cyclohexyloxy)-3-((1S,4S)-5-phenyl-2,5-diazabicyclo[2.2.2]octan-2-yl)propan-2-ol]	1830 nM	490 nM		
OC(COC1CCCCC1)CN1C[C@H]2C[C@@H]1CN(Cc1ccccc1)C2 (stereo partly drawn) [Example 318, 1-((1S,5R)-3-benzyl-3,6-diazabicyclo[3.2.1]octan-6-yl)-3-(cyclohexyloxy)propan-2-ol]		> 5300 nM	48%	
COc1ccc2c(c1)C(CN1CC[C@@H]3C[C@H]1CN3c1ccccc1)CC2 (stereo partly drawn) [Example 319, (1S,5R)-2-((6-methoxy-2,3-dihydro-1H-inden-1-yl)methyl)-6-phenyl-2,6-diazabicyclo[3.2.1]octane]	40 nM	1210 nM		
OC(COC1CCCCC1)CN1CC[C@H]2C[C@@H]1CN2c1ccccc1 (stereo partly drawn) [Example 325, 1-(cyclohexyloxy)-3-((1R,5S)-6-phenyl-2,6-diazabicyclo[3.2.1]octan-2-yl)propan-2-ol]	220 nM	250 nM		
COc1ccc2c(c1)C(CN1CC3CC(C1)N(c1ccccc1)C3)CC2 (stereo not drawn) [Example 328, 3-((6-methoxy-2,3-dihydro-1H-inden-1-yl)methyl)-6-phenyl-3,6-diazabicyclo[3.2.1]octane]		5310 nM		31%
O=C1c2ccccc2CCN1CCN1C[C@@H]2C[C@H](C1)N(c1ccccc1)C2 [Example 329, 2-(2-((1S,5R)-6-phenyl-3,6-diazabicyclo[3.2.1]octan-3-yl)ethyl)-3,4-dihydroisoquinolin-1(2H)-one]		> 16700 nM		36%
OC(COC1CCCCC1)CN1C[C@@H]2C[C@H](C1)N(c1ccccc1)C2 (stereo partly drawn) [Example 331, 1-(cyclohexyloxy)-3-((1S,5R)-6-phenyl-3,6-diazabicyclo[3.2.1]octan-3-yl)propan-2-ol]	310 nM	1640 nM		
COc1ccccc1N1CCC2(CCN(CC3CCc4ccccc43)C2)C1 (stereo not drawn) [Example 335, 2-((2,3-dihydro-1H-inden-1-yl)methyl)-7-(2-methoxyphenyl)-2,7-diazaspiro[4.4]nonane]	120 nM	40 nM		
Fc1ccc(N2CCC3(CCN(CC4CCc5cccnc54)C3)C2)cc1 (stereo not drawn) [Example 337, 2-((6,7-dihydro-5H-cyclopenta[b]pyridin-7-yl)methyl)-7-(4-fluorophenyl)-2,7-diazaspiro[4.4]nonane]		450 nM		-2%
Fc1ccc(N2CCC3(CCN(CC4Cc5cccnc5C4)C3)C2)cc1 (stereo not drawn) [Example 339, 2-((6,7-dihydro-5H-cyclopenta[b]pyridin-6-yl)methyl)-7-(4-fluorophenyl)-2,7-diazaspiro[4.4]nonane]	2270 nM	870 nM		
Fc1ccc(N2CCC3(CCN(CC4Cc5ccccc5C4)C3)C2)cc1 (stereo not drawn) [Example 340, 2-((2,3-dihydro-1H-inden-2-yl)methyl)-7-(4-fluorophenyl)-2,7-diazaspiro[4.4]nonane]		100 nM		25%
OC(COC1CCCCC1)CN1CCC2(CCN(c3ccccc3)C2)C1 (stereo not drawn) [Example 344, 1-(cyclohexyloxy)-3-(7-phenyl-2,7-diazaspiro[4.4]nonan-2-yl)propan-2-ol]	430 nM	110 nM		
O[C@H](COC1CCCCC1)CN1CCC2(CCN(c3ccccc3)C2)C1 (stereo partly drawn) [Example 345, (2S)-1-(cyclohexyloxy)-3-(7-phenyl-2,7-diazaspiro[4.4]nonan-2-yl)propan-2-ol]	1900 nM	240 nM		
O[C@@H](COC1CCCCC1)CN1CCC2(CCN(c3ccccc3)C2)C1 (stereo partly drawn) [Example 346, (2R)-1-(cyclohexyloxy)-3-(7-phenyl-2,7-diazaspiro[4.4]nonan-2-yl)propan-2-ol]	320 nM	270 nM		
COc1ccccc1CN1CCC2(CCN(CC3CCc4ccccc43)C2)C1 (stereo not drawn) [Example 347, 2-((2,3-dihydro-1H-inden-1-yl)methyl)-7-(2-methoxybenzyl)-2,7-diazaspiro[4.4]nonane]	3190 nM	30 nM		
OC(COC1CCCCC1)CN1CCC2(CCN(c3ccccc3)CC2)C1 (stereo not drawn) [Example 350, 1-(cyclohexyloxy)-3-(8-phenyl-2,8-diazaspiro[4.5]decan-2-yl)propan-2-ol]	1680 nM	610 nM		
OC(COC1CCCCC1)CN1CCCC2(CCN(c3ccccc3)C2)C1 (stereo not drawn) [Example 356, 1-(cyclohexyloxy)-3-(2-phenyl-2,7-diazaspiro[4.5]decan-7-yl)propan-2-ol]	610 nM	250 nM		
C1=C(c2ccccc2)COC12CN(CC1CCc3ccccc31)C2 (stereo not drawn) [Example 358, 2-((2,3-dihydro-1H-inden-1-yl)methyl)-7-phenyl-5-oxa-2-azaspiro[3.4]oct-7-ene]	> 10000 nM	870 nM		
c1ccc(C2COC3(C2)CN(CC2CCc4ccccc42)C3)cc1 (stereo not drawn) [Example 359, 2-((2,3-dihydro-1H-inden-1-yl)methyl)-7-phenyl-5-oxa-2-azaspiro[3.4]octane]		550 nM		16%
O[C@H](COC1CCCCC1)CN1CC2(CC(c3ccccc3)CO2)C1 (stereo partly drawn) [Example 360, (2S)-1-(cyclohexyloxy)-3-(7-phenyl-5-oxa-2-azaspiro[3.4]octan-2-yl)propan-2-ol]		130 nM		4%
O[C@@H](COC1CCCCC1)CN1CC2(CC(c3ccccc3)CO2)C1 (stereo partly drawn) [Example 361, (2R)-1-(cyclohexyloxy)-3-(7-phenyl-5-oxa-2-azaspiro[3.4]octan-2-yl)propan-2-ol]	2710 nM	20 nM		
COc1ccccc1OC1COC2(C1)CN(CC1CCc3ccccc31)C2 (stereo not drawn) [Example 363, 2-((2,3-dihydro-1H-inden-1-yl)methyl)-7-(2-methoxyphenoxy)-5-oxa-2-azaspiro[3.4]octane]		620 nM		48%
Fc1ccc(OC2COC3(C2)CN(CC2CCc4ccccc42)C3)cc1 (stereo not drawn) [Example 368, 2-((2,3-dihydro-1H-inden-1-yl)methyl)-7-(4-fluorophenoxy)-5-oxa-2-azaspiro[3.4]octane]	380 nM	150 nM		
COc1ccc2c(c1)C(CN1CC3(CC(Oc4ccc(F)cc4)CO3)C1)CC2 (stereo not drawn) [Example 369, 7-(4-fluorophenoxy)-2-((6-methoxy-2,3-dihydro-1H-inden-1-yl)methyl)-5-oxa-2-azaspiro[3.4]octane]		290 nM	64%	
Fc1ccc(OC2COC3(C2)CN(CC2Cc4cccnc4C2)C3)cc1 (stereo not drawn) [Example 370, 2-((6,7-dihydro-5H-cyclopenta[b]pyridin-6-yl)methyl)-7-(4-fluorophenoxy)-5-oxa-2-azaspiro[3.4]octane]	2010 nM	100 nM		
COc1ccccc1OC1CCC2(CCN(CC3CCc4cccnc43)C2)C1 (stereo not drawn) [Example 373, 2-((6,7-dihydro-5H-cyclopenta[b]pyridin-7-yl)methyl)-7-(2-methoxyphenoxy)-2-azaspiro[4.4]nonane]	2420 nM	440 nM		
OC1(c2ccccc2)COC2(CCN(CC3CCc4ccccc43)CC2)C1 (stereo not drawn) [Example 374, 8-((2,3-dihydro-1H-inden-1-yl)methyl)-3-phenyl-1-oxa-8-azaspiro[4.5]decan-3-ol]		250 nM		9%
